Key:
Experiment in all cases: Kinobeads elution with test compound, mouse brain lysate, MS
Format in all cases: binding
Details in all cases: kinase released from kinobeads by specific elution
[1] = molecular target: T1, GSK3Aps (Mus musculus, UniProt Q2NL51)
T1 construct: from tissue; host or cells: mouse brain
How it was run: (§1)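 Competitive elution: mouse brain lysate bound to kinobeads, gentle wash, test compound 1.0 mM in elution buffer, 30 min, 4° C; solvent control 2% DMSO/DMF. Eluates → DTT reduction, iodoacetamide alkylation, SDS gel → MS identification.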

[2] = molecular target: T2, JNK1 (Mus musculus, UniProt Q91Y86)
T2 construct: from tissue; host or cells: mouse brain
How it was run: as §1

[3] = molecular target: FAK (Mus musculus, UniProt P34152)
How it was run: as §1

[4] = molecular target: T3, FYN (Mus musculus, UniProt P39688)
T3 construct: […]; from tissue; host or cells: mouse brain
How it was run: as §1

[5] = molecular target: CDK5 (Mus musculus, UniProt P49615)
How it was run: as §1

[6] = molecular target: EphA5 (Mus musculus, UniProt Q60629)
How it was run: as §1

[7] = molecular target: EphA4 (Mus musculus, UniProt Q03137)
How it was run: as §1

[8] = test system: YESps
How it was run: as §1

[9] = molecular target: CSK (Mus musculus, UniProt P41241)
How it was run: as §1

[10] = molecular target: T4, GAK (Mus musculus, UniProt Q99KY4)
T4 construct: from tissue; host or cells: mouse brain
T4 sequence (Q99KY4 1-1305): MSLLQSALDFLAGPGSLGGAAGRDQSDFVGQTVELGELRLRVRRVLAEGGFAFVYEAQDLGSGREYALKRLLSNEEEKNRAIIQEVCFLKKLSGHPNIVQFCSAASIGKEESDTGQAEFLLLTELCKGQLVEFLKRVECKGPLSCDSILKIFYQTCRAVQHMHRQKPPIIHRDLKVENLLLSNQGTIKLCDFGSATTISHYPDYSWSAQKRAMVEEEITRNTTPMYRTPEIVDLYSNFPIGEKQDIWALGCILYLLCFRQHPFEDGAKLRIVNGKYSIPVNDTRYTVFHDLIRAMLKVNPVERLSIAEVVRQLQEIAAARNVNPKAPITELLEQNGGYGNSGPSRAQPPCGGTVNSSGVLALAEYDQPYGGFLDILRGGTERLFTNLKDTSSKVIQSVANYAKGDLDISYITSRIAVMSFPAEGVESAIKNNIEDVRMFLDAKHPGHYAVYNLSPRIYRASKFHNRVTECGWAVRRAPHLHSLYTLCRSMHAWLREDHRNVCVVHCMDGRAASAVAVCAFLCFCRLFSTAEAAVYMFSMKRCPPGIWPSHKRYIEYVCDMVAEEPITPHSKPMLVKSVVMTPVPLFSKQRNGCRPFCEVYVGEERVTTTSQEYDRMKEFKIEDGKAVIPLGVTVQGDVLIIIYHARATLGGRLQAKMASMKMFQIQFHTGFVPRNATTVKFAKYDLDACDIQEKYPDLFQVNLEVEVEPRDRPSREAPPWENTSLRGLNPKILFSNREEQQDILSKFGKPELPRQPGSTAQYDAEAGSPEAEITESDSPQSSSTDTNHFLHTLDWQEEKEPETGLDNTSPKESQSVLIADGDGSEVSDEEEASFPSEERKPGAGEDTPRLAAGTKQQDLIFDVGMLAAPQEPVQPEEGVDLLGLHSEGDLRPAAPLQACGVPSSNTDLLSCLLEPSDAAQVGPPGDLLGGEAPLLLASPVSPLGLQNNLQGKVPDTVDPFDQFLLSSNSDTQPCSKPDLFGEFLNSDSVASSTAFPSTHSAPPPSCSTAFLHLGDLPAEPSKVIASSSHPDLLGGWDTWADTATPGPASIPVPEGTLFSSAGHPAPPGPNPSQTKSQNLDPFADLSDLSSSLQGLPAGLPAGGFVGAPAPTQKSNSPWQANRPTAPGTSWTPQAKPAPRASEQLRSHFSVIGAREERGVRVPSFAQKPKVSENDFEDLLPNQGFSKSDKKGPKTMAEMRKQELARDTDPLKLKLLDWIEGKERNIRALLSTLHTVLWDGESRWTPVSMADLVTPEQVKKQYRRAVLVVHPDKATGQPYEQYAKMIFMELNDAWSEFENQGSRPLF
How it was run: as §1

EphA5, sequence (Q60629 27-876): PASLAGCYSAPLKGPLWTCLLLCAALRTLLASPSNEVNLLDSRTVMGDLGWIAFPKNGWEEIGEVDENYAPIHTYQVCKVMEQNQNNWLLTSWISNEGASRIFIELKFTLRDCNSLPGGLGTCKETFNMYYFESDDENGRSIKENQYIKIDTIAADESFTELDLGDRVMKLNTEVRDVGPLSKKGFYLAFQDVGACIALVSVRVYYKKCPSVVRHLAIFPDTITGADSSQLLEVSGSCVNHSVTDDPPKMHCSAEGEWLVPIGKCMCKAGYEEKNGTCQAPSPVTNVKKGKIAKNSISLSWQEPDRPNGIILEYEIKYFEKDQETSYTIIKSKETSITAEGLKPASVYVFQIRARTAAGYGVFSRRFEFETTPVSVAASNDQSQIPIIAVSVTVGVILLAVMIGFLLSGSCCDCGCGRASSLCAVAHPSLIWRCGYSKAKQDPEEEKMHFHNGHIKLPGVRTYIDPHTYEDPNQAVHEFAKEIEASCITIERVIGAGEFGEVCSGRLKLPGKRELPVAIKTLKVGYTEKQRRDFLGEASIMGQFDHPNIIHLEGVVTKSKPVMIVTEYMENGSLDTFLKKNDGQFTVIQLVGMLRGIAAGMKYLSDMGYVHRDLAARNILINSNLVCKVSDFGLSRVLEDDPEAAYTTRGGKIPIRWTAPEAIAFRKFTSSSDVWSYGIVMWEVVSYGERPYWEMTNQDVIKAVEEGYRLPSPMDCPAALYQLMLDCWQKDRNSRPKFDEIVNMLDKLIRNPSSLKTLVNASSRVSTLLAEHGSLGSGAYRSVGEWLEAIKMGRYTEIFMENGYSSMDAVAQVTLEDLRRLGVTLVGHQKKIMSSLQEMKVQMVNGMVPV
FAK, sequence (P34152 whole entry): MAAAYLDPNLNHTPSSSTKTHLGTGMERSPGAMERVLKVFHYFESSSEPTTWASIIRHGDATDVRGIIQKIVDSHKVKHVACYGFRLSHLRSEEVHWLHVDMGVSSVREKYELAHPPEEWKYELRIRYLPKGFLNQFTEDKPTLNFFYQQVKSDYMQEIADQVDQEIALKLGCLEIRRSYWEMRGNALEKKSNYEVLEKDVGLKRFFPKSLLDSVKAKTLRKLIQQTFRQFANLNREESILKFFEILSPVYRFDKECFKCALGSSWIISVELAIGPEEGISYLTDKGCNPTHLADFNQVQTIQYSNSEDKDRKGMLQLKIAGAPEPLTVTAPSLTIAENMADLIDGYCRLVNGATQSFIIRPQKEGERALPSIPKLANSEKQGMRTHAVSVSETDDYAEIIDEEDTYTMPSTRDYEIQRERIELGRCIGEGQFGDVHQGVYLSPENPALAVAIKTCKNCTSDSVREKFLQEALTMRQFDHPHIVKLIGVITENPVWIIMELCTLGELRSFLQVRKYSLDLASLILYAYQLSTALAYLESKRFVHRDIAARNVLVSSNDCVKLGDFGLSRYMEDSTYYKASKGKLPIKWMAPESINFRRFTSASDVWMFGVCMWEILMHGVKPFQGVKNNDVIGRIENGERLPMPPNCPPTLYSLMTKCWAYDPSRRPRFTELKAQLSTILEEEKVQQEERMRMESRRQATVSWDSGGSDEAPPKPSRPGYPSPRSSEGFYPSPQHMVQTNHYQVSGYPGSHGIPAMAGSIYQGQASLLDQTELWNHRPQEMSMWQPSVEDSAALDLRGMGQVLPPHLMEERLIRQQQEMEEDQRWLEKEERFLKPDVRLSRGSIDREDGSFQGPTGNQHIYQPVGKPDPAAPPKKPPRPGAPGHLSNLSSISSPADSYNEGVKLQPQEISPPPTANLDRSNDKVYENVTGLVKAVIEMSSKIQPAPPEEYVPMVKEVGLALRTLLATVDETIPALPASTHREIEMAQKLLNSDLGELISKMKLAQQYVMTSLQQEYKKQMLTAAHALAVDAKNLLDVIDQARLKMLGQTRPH
CSK, sequence (P41241 whole entry): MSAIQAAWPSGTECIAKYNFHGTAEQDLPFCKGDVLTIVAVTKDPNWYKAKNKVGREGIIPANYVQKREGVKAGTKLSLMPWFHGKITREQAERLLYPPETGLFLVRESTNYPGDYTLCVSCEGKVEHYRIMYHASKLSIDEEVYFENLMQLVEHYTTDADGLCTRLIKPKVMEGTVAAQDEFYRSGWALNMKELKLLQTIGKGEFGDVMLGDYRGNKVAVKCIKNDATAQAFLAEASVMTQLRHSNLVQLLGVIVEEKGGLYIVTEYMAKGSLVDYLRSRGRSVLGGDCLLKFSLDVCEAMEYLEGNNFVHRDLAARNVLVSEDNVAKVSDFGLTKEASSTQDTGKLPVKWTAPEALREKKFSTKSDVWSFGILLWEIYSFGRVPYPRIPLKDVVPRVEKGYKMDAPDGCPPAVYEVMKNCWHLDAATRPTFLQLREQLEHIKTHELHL
T1 sequence (Q2NL51 2-490 limits assumed): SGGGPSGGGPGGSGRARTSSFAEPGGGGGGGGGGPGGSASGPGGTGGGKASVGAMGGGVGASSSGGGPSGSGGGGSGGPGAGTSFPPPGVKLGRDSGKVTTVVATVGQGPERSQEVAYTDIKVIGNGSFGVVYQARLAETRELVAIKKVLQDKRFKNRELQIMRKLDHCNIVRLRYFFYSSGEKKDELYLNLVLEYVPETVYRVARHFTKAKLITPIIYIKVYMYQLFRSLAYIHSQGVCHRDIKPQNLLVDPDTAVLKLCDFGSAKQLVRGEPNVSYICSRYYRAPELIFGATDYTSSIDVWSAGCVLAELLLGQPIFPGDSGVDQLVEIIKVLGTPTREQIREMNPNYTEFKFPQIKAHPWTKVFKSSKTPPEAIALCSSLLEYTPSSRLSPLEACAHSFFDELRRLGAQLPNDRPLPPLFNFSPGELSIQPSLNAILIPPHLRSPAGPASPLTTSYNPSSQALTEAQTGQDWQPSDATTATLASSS
CDK5, sequence (P49615 whole entry): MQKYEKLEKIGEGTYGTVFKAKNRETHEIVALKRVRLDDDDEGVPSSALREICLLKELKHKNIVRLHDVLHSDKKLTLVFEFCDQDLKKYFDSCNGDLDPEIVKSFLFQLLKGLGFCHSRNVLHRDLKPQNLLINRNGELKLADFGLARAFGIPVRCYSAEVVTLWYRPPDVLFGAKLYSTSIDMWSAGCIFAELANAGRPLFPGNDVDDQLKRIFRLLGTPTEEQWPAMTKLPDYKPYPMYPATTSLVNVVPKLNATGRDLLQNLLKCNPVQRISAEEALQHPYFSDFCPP
T2 sequence (Q91Y86 whole entry): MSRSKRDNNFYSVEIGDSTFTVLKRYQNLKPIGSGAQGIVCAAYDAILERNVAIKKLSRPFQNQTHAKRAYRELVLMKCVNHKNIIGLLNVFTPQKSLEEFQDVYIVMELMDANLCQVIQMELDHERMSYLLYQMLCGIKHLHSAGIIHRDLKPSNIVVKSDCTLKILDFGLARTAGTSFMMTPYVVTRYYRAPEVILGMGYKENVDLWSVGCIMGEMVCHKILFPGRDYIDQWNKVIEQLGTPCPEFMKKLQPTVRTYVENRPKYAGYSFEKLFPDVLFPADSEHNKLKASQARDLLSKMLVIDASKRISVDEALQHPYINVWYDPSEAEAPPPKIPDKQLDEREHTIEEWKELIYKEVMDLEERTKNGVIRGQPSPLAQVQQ
T3 sequence (P39688 whole entry): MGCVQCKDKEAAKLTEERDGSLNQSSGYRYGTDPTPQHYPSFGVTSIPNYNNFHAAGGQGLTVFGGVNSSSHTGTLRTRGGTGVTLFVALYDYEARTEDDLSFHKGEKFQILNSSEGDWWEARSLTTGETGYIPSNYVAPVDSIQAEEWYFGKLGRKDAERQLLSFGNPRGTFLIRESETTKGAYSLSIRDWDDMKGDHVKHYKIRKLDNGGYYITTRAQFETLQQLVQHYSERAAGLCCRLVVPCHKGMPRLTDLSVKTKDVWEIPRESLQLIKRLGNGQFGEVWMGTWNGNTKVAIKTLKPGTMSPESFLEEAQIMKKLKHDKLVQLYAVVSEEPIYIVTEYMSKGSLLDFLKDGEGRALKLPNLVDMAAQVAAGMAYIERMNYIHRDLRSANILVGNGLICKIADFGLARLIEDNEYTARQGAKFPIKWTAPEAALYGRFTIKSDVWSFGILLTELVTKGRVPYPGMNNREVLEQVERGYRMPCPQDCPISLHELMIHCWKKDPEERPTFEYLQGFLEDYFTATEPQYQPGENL
EphA4, sequence (Q03137 20-986): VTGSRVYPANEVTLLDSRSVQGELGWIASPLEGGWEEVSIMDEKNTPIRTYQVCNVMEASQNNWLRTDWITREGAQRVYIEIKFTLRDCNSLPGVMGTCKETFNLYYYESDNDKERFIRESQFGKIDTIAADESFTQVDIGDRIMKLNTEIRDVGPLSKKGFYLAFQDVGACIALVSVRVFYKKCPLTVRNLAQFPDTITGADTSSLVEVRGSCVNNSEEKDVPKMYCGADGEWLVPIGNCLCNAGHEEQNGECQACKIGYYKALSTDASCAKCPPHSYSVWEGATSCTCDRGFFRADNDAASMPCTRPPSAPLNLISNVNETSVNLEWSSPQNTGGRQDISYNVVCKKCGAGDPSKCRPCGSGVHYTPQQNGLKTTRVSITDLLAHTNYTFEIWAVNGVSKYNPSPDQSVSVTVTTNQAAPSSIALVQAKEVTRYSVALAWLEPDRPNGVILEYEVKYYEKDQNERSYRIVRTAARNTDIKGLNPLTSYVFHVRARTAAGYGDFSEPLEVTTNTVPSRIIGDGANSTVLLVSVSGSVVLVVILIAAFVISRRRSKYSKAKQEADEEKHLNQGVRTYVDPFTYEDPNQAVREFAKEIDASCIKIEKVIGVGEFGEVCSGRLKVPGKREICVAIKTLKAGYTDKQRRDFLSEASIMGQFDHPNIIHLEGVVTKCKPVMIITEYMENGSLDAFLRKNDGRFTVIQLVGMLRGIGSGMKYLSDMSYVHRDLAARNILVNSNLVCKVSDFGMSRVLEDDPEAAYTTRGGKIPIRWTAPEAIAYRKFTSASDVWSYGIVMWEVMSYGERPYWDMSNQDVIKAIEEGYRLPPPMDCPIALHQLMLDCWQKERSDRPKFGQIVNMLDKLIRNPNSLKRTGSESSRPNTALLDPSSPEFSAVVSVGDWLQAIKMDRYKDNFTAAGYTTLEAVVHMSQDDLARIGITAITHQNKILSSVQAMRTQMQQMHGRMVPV

| Compound | mass spectrometry score, GSK3Aps [1] | number of identified peptides, GSK3Aps [1] | mass spectrometry score, JNK1 [2] | number of identified peptides, JNK1 [2] | mass spectrometry score, FAK [3] | number of identified peptides, FAK [3] | mass spectrometry score, FYN [4] | number of identified peptides, FYN [4] | mass spectrometry score, CDK5 [5] | number of identified peptides, CDK5 [5] | mass spectrometry score, EphA5 [6] | number of identified peptides, EphA5 [6] | mass spectrometry score, EphA4 [7] | number of identified peptides, EphA4 [7] | mass spectrometry score, CSK [9] | number of identified peptides, CSK [9] | mass spectrometry score, GAK [10] | number of identified peptides, GAK [10] | mass spectrometry score, YESps [8] | number of identified peptides, YESps [8] |
| --- | --- | --- | --- | --- | --- | --- | --- | --- | --- | --- | --- | --- | --- | --- | --- | --- | --- | --- | --- | --- |
| CC(C)[C@H](CO)Nc1nc(Nc2ccc(C(=O)O)c(Cl)c2)c2ncn(C(C)C)c2n1 [Purvalanol B, reference compound] | 357 | 6 | 311 | 10 | 269 | 6 | 268 | 6 | 1086 | 41 | 330 | 14 | 1702 | 37 | 492 | 12 | – | – | 304 | 7 |
| CNC1CC2OC(C)(C1OC)n1c3ccccc3c3c4c(c5c6ccccc6n2c5c31)C(=O)NC4 (stereo not drawn) [CZC9280] | 868 | 47 | 457 | 16 | – | – | 314 | 6 | 861 | 43 | – | – | 332 | 11 | 307 | 8 | – | – | 480 | 12 |
| CCCCCCCCCCCCOS(=O)(=O)[O-].[Na+] [SDS] | 585 | 77 | 389 | 47 | 160 | 6 | 407 | 17 | 604 | 21 | 246 | 9 | 727 | 33 | 365 | 15 | 166 | 8 | 236 | 13 |

The next lines start with results.

| mass spectrometry score, GSK3Aps [1] | number of identified peptides, GSK3Aps [1] | mass spectrometry score, JNK1 [2] | number of identified peptides, JNK1 [2] | mass spectrometry score, FAK [3] | number of identified peptides, FAK [3] | mass spectrometry score, FYN [4] | number of identified peptides, FYN [4] | mass spectrometry score, CDK5 [5] | number of identified peptides, CDK5 [5] | mass spectrometry score, EphA5 [6] | number of identified peptides, EphA5 [6] | mass spectrometry score, EphA4 [7] | number of identified peptides, EphA4 [7] | mass spectrometry score, CSK [9] | number of identified peptides, CSK [9] | mass spectrometry score, GAK [10] | number of identified peptides, GAK [10] | Compound | mass spectrometry score, YESps [8] | number of identified peptides, YESps [8] |
| --- | --- | --- | --- | --- | --- | --- | --- | --- | --- | --- | --- | --- | --- | --- | --- | --- | --- | --- | --- | --- |
| 635 | 27 | 590 | 48 | 257 | 8 | – | – | 794 | 27 | – | – | 138 | 3 | – | – | 733 | 16 | NCc1ccc(Nc2ncc(F)c(Nc3ccccc3)n2)cc1 [CZC00008004] | 110 | 3 |
| 154 | 3 | 448 | 17 | 322 | 10 | 279 | 6 | 462 | 11 | 144 | 3 | 1233 | 32 | 809 | 19 | 278 | 7 | Cn1c(=O)c(-c2c(Cl)cccc2Cl)cc2cnc(Nc3ccc(CN)cc3)cc21 [CZC7324] | – | – |

From US20090238808A1, “Process for the identification of novel enzyme interacting compounds” (priority 2005, published 2009)
